Assay results published in US7718801B2, “Substituted imidazole derivative” (Banyu Pharmaceutical Co., Ltd., priority 2004, dated 2010).

Assays:
[1] = molecular target: T1, PLK1-T210D (human active type PLK1) (Homo sapiens, UniProt P53350, T210D); assay: Measurement of the inhibitory effect against PLK1-T210D activity ([γ-33P]ATP, CDC25C-derived peptide substrate); format: biochemical; conditions: 50 μM ATP, 50 μM substrate peptide, 25° C., 20 minutes
T1 construct: a baculovirus expressing full-length human PLK1 of which N terminus is fused with GST; GST (glutathione S-transferase) (N); made in house; host or cells: insect cells (baculovirus)
Protocol: It has been known that 210th codon of human PLK1 which originally codes for threonine can be changed to an active type by altering the site so as to code aspartic acid [Molecular and Cellular Biology (Mol. Cell. Biol.), 17th edition, 3408 (1997)]. In order to obtain a human active type PLK1 protein, cDNA of mutated PLK1 (PLK1-T210D) of which 210th codon codes aspartic acid was prepared, by substituting a base in the 210th codon of human PLK1 cDNA. This PLK1-T210D cDNA was integrated into a baculovirus expression vector in the same manner as in the above, expressed in insect cells, and then was purified.
For the measurement of the PLK1 and PLK1-T210D activity, used as a substrate was a synthetic peptide (aspartic acid-glutamic acid-leucine-methionine-glutamic acid-alanine-serine-phenylalanine-alanine-aspartic acid-glutamine-aspartic acid-alanine-lysine), where the serine surrounding sequence of the amino acid sequence No. 198 of CDC25C, which have been reported as the site for PLK1 substrate [EMBO Report, 3rd edition, 341 (2002)], is altered.
The reaction was carried out in accordance with the method of Toyoshima-Morimoto et al. [Nature, Vol. 410, 215-220, (2001)]. The volume of the reaction solution was 21.1 μL and the composition of the reaction buffer was 20 mM of tris-hydrochloric acid buffer (pH 7.4)/10 mM magnesium chloride/0.5 mM dithiothreitol/1 mM EGTA (ethylene glycol-bis(beta-aminoethylether)-N,N,N′,N′,-tetraacetic acid). Thereto, purified PLK 1, 50 μM of the substrate peptide, 50 μM of non-labeled adenosine triphosphate (ATP), and 1 μCi of [γ-33P]-labeled ATP (2000 to 4000 Ci/mmole) were added to react at 25° C. for 20 minutes. Then, 10 μL of 350 mM phosphate buffer was added to the reaction system to terminate the reaction. The resultant solution was spotted onto a multi-screen phosphocellulose filter on a 96-well plate. After the phosphocellulose filter is washed with 75 mM phosphate buffer and then dried, the radioactivity of the substrate was measured with a liquid scintillation counter. The non-labeled ATP and [γ-33P]-labeled ATP was purchased from Amersham Bioscience Corp. and the multi-screen phosphocellulose filter from Millipore Corp., respectively.
The addition of the compound of the present invention to the reaction system was carried out by adding 1.1 μL of the solution as prepared by preliminarily dissolving in dimethylsulfoxide at a 20-fold concentration of the final concentration. A control was provided by adding 1.1 μL of dimethylsulfoxide to the reaction system.

[2] = tested on: HeLaS3 cells; assay: Inhibitory activity against PLK1 at cellular level: ratio of cells arrested at M phase (phospho-histone H3 Ser10, mitotic index); format: cell-based; conditions: Homo sapiens, HeLa S3; HeLaS3 cells synchronized at G1/S, 12 hours with compound; concentration inducing 50% of maximal M phase arrest; read-out: Inhibitory effect against cell proliferation
Protocol: For the measurement of the PLK 1 inhibitory effect of the compound at the cellular level, human uterine cervix cell lines HeLaS3 cells were used. The HeLaS3 cell was obtained from American Type Culture Collection (ATTC), and cultured in a CO2-incubator of saturated steam by using Dulbecco's Modified Eagle's Medium containing 10% fetal calf serum at 37° C. in the presence of 5% CO2.
It has been reported that PLK 1 plays an important role in various stages of mitotic phase (M-phase) in mammalian cells (Nature Review Molecular Cell Biology, Vol. 5, 429, (2004)). In fact, when the mammalian cells are treated with PLK 1 siRNA to control the expression level, the cell cycle progression is inhibited and thus the cell is arrested at M phase. Also, when examining the phosphorylation level of serine, 10th residue of histone H3, which is thought to be required for a chromosome condensation in M phase, it is observed that the level is enhanced to a high level. Thus, after treating the cell with the compound according to the present invention; the phosphorylation level of histone H3 was examined by an indirect fluorescent antibody technique, the cells arrested at M phase were identified by using the level thereof as an indicator to analyze the ratio of cells arrested at M phase; and then EC50 value of each compound was calculated to evaluate the PLK 1 inhibitory effect at a cellular level.
First, HeLaS3 cells synchronized at the G1/S phase by a double-thymidine technique were seeded into lysine-treated 96-well plate (Falcon Corp.) at the ratio of 8,000 per one well, and allowed to stand still in the above-mentioned CO2 incubator. […] After terminating the reaction, the reaction solution in wells was removed and replaced with 100 μL of PBS, and then fluorescence images were captured by using InCell Analyzer 1000 (manufactured by GE Amersham) to analyze the ratio of the cells arrested at M phase (Mitotic index) at different view angles. […]

[3] = molecular target: T2, full-length human PLK1 (Homo sapiens, UniProt P53350); assay: Measurement of the inhibitory effect against PLK1 activity ([γ-33P]ATP, CDC25C-derived peptide substrate); format: biochemical; conditions: 50 μM ATP, 50 μM substrate peptide, 25° C., 20 minutes
T2 construct: a baculovirus expressing full-length human PLK1 of which N terminus is fused with GST; GST (glutathione S-transferase) (N, cleaved yes); made in house; host or cells: Spodoptera frugiperda Sf9 insect cells (baculovirus)
Protocol: First, a baculovirus expressing full-length human PLK1 of which N terminus is fused with GST (glutathione S-transferase) was prepared, and then the PLK1 infected into a Spodoptera frugiperda (Sf)9 insect cell was highly expressed as a GST-fused protein. The cells were recovered and suspended in a lysis buffer (50 mM tris-hydrochloric acid buffer (pH 7.4)/150 mM sodium chloride/1 mM EDTA (ethylenediamine tetraacetic acid)/1 mM dithiothreitol/0.1% polyoxyethylene sorbitan monolaurate) to break cells with sonicator, and supernatant was recovered after a centrifugation. The supernatant was reacted on glutathione sepharose beads, and then the beads were washed with a lysis buffer. Thereafter, the beads were reacted in a lysis buffer containing Precision Protease to recover supernatant. […]
The reaction was carried out in accordance with the method of Toyoshima-Morimoto et al. [Nature, Vol. 410, 215-220, (2001)]. […] After the phosphocellulose filter is washed with 75 mM phosphate buffer and then dried, the radioactivity of the substrate was measured with a liquid scintillation counter. […]

T1 sequence (P53350 whole entry T210D, the tested form may be a part): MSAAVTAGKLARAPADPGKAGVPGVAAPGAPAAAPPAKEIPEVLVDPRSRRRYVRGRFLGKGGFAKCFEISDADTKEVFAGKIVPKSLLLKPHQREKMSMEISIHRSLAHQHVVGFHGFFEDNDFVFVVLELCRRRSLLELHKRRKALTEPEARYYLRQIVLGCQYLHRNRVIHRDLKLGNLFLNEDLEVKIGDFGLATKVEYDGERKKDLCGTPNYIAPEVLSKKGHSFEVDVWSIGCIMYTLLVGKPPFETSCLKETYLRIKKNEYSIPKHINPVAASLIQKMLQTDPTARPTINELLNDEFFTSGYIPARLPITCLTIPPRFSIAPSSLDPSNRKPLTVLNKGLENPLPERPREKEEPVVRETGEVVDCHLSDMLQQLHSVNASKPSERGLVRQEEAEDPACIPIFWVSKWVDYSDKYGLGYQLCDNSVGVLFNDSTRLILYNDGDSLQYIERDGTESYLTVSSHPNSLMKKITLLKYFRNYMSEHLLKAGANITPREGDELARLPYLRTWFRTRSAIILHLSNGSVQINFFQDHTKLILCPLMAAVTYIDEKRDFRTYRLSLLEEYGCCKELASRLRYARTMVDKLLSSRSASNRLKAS
T2 sequence (P53350 whole entry, the tested form may be a part): as the sequence (P53350 whole entry T210D, the tested form may be a part) above, with D210T counted along it

| IC50 [1] [µM] | EC50 [2] [µM] | IC50 [3] [µM] | Compound |
| --- | --- | --- | --- |
| 0.041 | 0.18 | – | COc1cccn2c(-c3nc(N[C@@H](C)c4ccc(N5CCNCC5)cc4)ncc3C#N)cnc12 [Example 158, 4-(8-methoxyimidazo[1,2-a]pyridin-3-yl)-2-{[(1S)-1-(4-piperazin-1-ylphenyl)ethyl]amino}pyrimidine-5-carbonitrile] |
| 0.047 | 0.34 | – | Cc1cccn2c(-c3nc(N[C@@H](C)c4ccc(N)cc4)ncc3C#N)cnc12 [Example 112, 2-{[(1S)-1-(4-aminophenyl)ethyl]amino}-4-(8-methylimidazo[1,2-a]pyridin-3-yl)pyrimidine-5-carbonitrile] |
| 0.016 | 0.31 | – | C[C@H](Nc1ncc(C#N)c(-c2cnc3c(C(F)(F)F)cccn23)n1)c1ccccc1 [Example 36, 2-{[(1S)-1-phenylethyl]amino}-4-[8-(trifluoromethyl)imidazo[1,2-a]pyridin-3-yl]-5-pyrimidinecarbonitrile] |

Second part, the compound before the results:

| Compound | IC50 [1] [µM] | EC50 [2] [µM] | IC50 [3] [µM] |
| --- | --- | --- | --- |
| C[C@H](Nc1ncc(Br)c(-c2cnc3c(Cl)cccn23)n1)c1ccccc1 [Example 28, 5-bromo-4-(8-chloroimidazo[1,2-a]pyridin-3-yl)-N-[(1S)-1-phenylethyl]-2-pyrimidinamine] | 0.042 | – | – |
| Cc1cccn2c(-c3nc(N[C@@H](C)c4ccccc4)ncc3C#N)cnc12 [Example 8, 4-(8-methylimidazo[1,2-a]pyridin-3-yl)-2-{[(1S)-1-phenylethyl]amino}-5-pyrimidinecarbonitrile] | 0.026 | – | 0.043 |
